The numbers were not newly measured in patent publication US20230088267A1, “Dual chamber electronic nicotine delivery system with puff duration control and timed lockout and just-in-time adaptive intervention to treat nicotine dependence in cigarette smokers” (Virginia Commonwealth University, priority 2021, published 2023), which cites them from elsewhere.

Consider `CN1CCC[C@H]1c1cccnc1` [nicotine, L-nicotine], for which, where the note is “pyridine nitrogen, protonated under acidic conditions”, the “pka of the second nitrogen atom, located in the aromatic pyridine moiety” value is reported as 3.10. The “pka of the nitrogen atom in the pyrrolidine moiety” value (pyrrolidine nitrogen, basic) is given as 8.01.
